# Experimental data as given in paper PMC4965013, “Open Source Drug Discovery with the Malaria Box Compound Collection for Neglected Diseases and Beyond” (PLoS Pathogens, 2016).
# Tests used:
# [1] = system: P. falciparum 3D7 trophozoites; experiment: Metabolomic fingerprint profiling LC-MS; assay type: cell-based, Plasmodium falciparum; parameters: UDP-D-glucose / ADP-D-glucose: unit not given here
# P. falciparum = experiment: EC50 listed in S2 Table Metabolomics (used to set the concentration tested); assay type: cell-based; conditions: Plasmodium falciparum; EC50 used for Factor_XEC50 in metabolomics; read-out: EC50_nM
# [2] = metabolite level change after treatment
smiles,measurement,setting,value
Cc1ccc(-c2cc3c(nn2)-c2ccccc2C3=O)cc1 [MMV666021],Acetyllysine,"[1]; S2 Table Metabolomics, metabolite Acetyllysine",-0.3916
same,N-acetyl-L-ornithine,"[1]; S2 Table Metabolomics, metabolite N-acetyl-L-ornithine",-0.1425
same,N-carbamoyl-L-aspartate,"[1]; S2 Table Metabolomics, metabolite N-carbamoyl-L-aspartate",3.794
same,NADPH,"[1]; S2 Table Metabolomics, metabolite NADPH",1.165
same,dAMP,"[1]; S2 Table Metabolomics, metabolite dAMP",-0.6653
same,dCMP,"[1]; S2 Table Metabolomics, metabolite dCMP",-0.7362
same,dTDP,"[1]; S2 Table Metabolomics, metabolite dTDP",-1.533
same,dTMP,"[1]; S2 Table Metabolomics, metabolite dTMP",-1.5256
same,dTTP,"[1]; S2 Table Metabolomics, metabolite dTTP",-1.181
same,dihydroorotate,"[1]; S2 Table Metabolomics, metabolite dihydroorotate",4.247
same,orotate,"[1]; S2 Table Metabolomics, metabolite orotate",-2.195
same,DLH,"[1]; S2 Table Metabolomics, peptide DLH",0.5354
same,DLS/SDL/SID,"[1]; S2 Table Metabolomics, peptide DLS/SDL/SID",0.5895
same,PD,"[1]; S2 Table Metabolomics, peptide PD",0.02372
same,PEE,"[1]; S2 Table Metabolomics, peptide PEE",0.1996
same,PVNF,"[1]; S2 Table Metabolomics, peptide PVNF",0.3334
same,3-phosphoglycerate,"[1]; metabolite 3-phosphoglycerate, S2 Table Metabolomics",0.4336
same,ADP-D-glucose,"[1]; metabolite ADP-D-glucose, S2 Table Metabolomics",0.0706
same,ATP,"[1]; metabolite ATP, S2 Table Metabolomics",0.08889
same,CDP,"[1]; metabolite CDP, S2 Table Metabolomics, change in metabolite level after compound treatment",-1.433
same,D-sedoheptulose-1/7-phosphate,"[1]; metabolite D-sedoheptulose-1/7-phosphate, S2 Table Metabolomics, change in metabolite level after compound treatment",-0.7013
same,FAD,"[1]; metabolite FAD, S2 Table Metabolomics",0.04196
same,GMP,"[1]; metabolite GMP, S2 Table Metabolomics, change in metabolite level after compound treatment",1.198
same,NAD+,"[1]; metabolite NAD+, S2 Table Metabolomics",-0.07934
same,NADP+,"[1]; metabolite NADP+, S2 Table Metabolomics",0.07896
same,Octoluse Bisphosphate,"[1]; metabolite Octoluse Bisphosphate, S2 Table Metabolomics, change in metabolite level after compound treatment",0.0421
same,Pyroglutamic acid,"[1]; metabolite Pyroglutamic acid, S2 Table Metabolomics",-0.4992
same,UDP-D-glucose,"[1]; metabolite UDP-D-glucose, S2 Table Metabolomics",0.003691
same,UDP-D-glucuronate,"[1]; metabolite UDP-D-glucuronate, S2 Table Metabolomics",-0.1073
same,UDP-N-acetyl-glucosamine,"[1]; metabolite UDP-N-acetyl-glucosamine, S2 Table Metabolomics",-0.2024
same,UDP,"[1]; metabolite UDP, S2 Table Metabolomics, change in metabolite level after compound treatment",-2.005
same,UMP,"[1]; metabolite UMP, S2 Table Metabolomics, change in metabolite level after compound treatment",-0.6482
same,UTP,"[1]; metabolite UTP, S2 Table Metabolomics, change in metabolite level after compound treatment",-1.713
same,a-ketoglutarate,"[1]; metabolite a-ketoglutarate, S2 Table Metabolomics",-0.6601
same,citrate/isocitrate,"[1]; metabolite citrate/isocitrate, S2 Table Metabolomics, change in metabolite level after compound treatment",-2.126
same,cytidine,"[1]; metabolite cytidine, S2 Table Metabolomics",0.5518
same,dATP,"[1]; metabolite dATP, S2 Table Metabolomics",0.3766
same,dGMP/AMP,"[1]; metabolite dGMP/AMP, S2 Table Metabolomics, change in metabolite level after compound treatment",-0.5358
same,fumarate,"[1]; metabolite fumarate, S2 Table Metabolomics, change in metabolite level after compound treatment",0.2361
same,glucose-1/6-phosphate,"[1]; metabolite glucose-1/6-phosphate, S2 Table Metabolomics, change in metabolite level after compound treatment",0.01993
same,glycerate,"[1]; metabolite glycerate, S2 Table Metabolomics, change in metabolite level after compound treatment",-1.131
same,guanine,"[1]; metabolite guanine, S2 Table Metabolomics, change in metabolite level after compound treatment",-0.835
same,guanosine,"[1]; metabolite guanosine, S2 Table Metabolomics, change in metabolite level after compound treatment",-1.803
same,hypoxanthine,"[1]; metabolite hypoxanthine, S2 Table Metabolomics",-0.06084
same,indole,"[1]; metabolite indole, S2 Table Metabolomics",-0.09156
same,inosine,"[1]; metabolite inosine, S2 Table Metabolomics, change in metabolite level after compound treatment",-0.5269
same,2_3-Diphosphoglyceric acid,[1]; [2],-0.1865
same,4-phosphopantothenate,[1]; [2],-0.7776
same,6-phospho-D-gluconate,[1]; [2],0.009051
same,FMN,[1]; [2],0.04698
same,IMP,[1]; [2],-0.1163
same,Pyrophosphate,[1]; [2],-0.09516
same,Sedoheptoluse bisphosphate,[1]; [2],-0.2318
same,cyclic-AMP,[1]; [2],-0.2358
same,glutathione disulfide,[1]; [2],-0.3199
same,lactate,[1]; [2],-0.9153
same,myo-inositol,[1]; [2],-1.23
same,nicotinate,"[1]; metabolite nicotinate, S2 Table Metabolomics",-1.397
same,ornithine,"[1]; metabolite ornithine, S2 Table Metabolomics",0.08018
same,phosphoenolpyruvate,"[1]; metabolite phosphoenolpyruvate, S2 Table Metabolomics",0.1844
same,pyruvate,"[1]; metabolite pyruvate, S2 Table Metabolomics, change in metabolite level after compound treatment",-1.786
same,ribose-phosphate,"[1]; metabolite ribose-phosphate, S2 Table Metabolomics",0.5392
same,sarcosine/alanine,"[1]; metabolite sarcosine/alanine, S2 Table Metabolomics, change in metabolite level after compound treatment",-0.3874
same,sn-glycerol-3-phosphate,"[1]; metabolite sn-glycerol-3-phosphate, S2 Table Metabolomics",0.4697
same,succinate/methylmalonic acid,"[1]; metabolite succinate/methylmalonic acid, S2 Table Metabolomics, change in metabolite level after compound treatment",-0.7859
same,uridine,"[1]; metabolite uridine, S2 Table Metabolomics, change in metabolite level after compound treatment",-1.3045
same,xanthosine,"[1]; metabolite xanthosine, S2 Table Metabolomics, change in metabolite level after compound treatment",-0.5693
same,EC50,P. falciparum,94.4 nM
